Measurements as given in patent US4309425A (priority 1980, dated 1982).
Where two headings read alike, the source gives them in different places.

Legend:
Erisyphe cichoracearum = experiment: cucumber powdery mildew curative test; format: in vivo; conditions: Cucumis sativus, 144 h, sprayed day after inoculation, additional 6 days
Text: Cucumber plants are inoculated with a spore suspension of the fungus Erisyphe cichoracearum and in a growth room overnight. The following day, the plants are sprayed to the point of run-off with a suspension prepared by dissolving compounds of this invention in acetone in an amount equal to 6% of the final volume and then suspended at a concentration of 20 ppm in purified water containing 25 ppm of the surfactant Alkanol® XC (sodium alkyl naphthalene sulfonate). Plants are returned to the growth room for an additional 6 days when disease ratings are then made. […] Phytotoxicity in the form of foliar burn or growth reduction was observed on some of the plants in association with disease control.

[1] = tested on: Puccinia graminis var. tritici; experiment: whole plant or invertebrate; format: in vivo; conditions: 192 h, read-out: % control wheat rust in preventive test
[2] = tested on: Puccinia graminis var. tritici; experiment: whole plant or invertebrate; format: in vivo; conditions: 192 h, read-out: % control wheat rust in a photostability test
Venturia inaequalis [3] = experiment: apple scab residual wash-off test; format: in vivo; conditions: 1/2 inch simulated rainfall, 10-12 days
Description: (§1) Compounds of this invention are dissolved in acetone in an amount equal to 6% of the final volume and then suspended at a concentration of 20 ppm in purified water containing 25 ppm of the surfactant Alkanol® XC (sodium alkyl naphthalene sulfonate). This suspension is sprayed to the point of run-off on apple seedlings. The following day, 1/2 inch of simulated rainfall is applied to the foliage of the plants. When the foliage is dry, the plants are inoculated with a spore suspension of the fungus Venturia inaequalis and incubated in a growth room for 10-12 days. Disease ratings are then made. […] Phytotoxicity in the form of foliar burn was observed on the plants in association with disease control.

Erysiphe cichoracearum [4] = experiment: cucumber powdery mildew photostability test; format: in vivo; conditions: Golovinomyces cichoracearum, 168 h, xenon arc 3500 foot candles 16 hours, 7 days
Description: (§2) Compounds of this invention are dissolved in acetone in an amount equal to 6% of the final volume and then suspended at a concentration of 20 ppm in purified water containing 25 ppm of the surfactant Alkanol® XC (sodium alkyl naphthalene sulfonate). This suspension is sprayed to the point of run-off in cucumber seedlings. When the foliage is dry, the plants are exposed to 3500 foot candles of light from a xenon arc source for a period of 16 hours. This light source approximates the spectrum of natural sunlight, and is used to assess photostability of the compounds of this invention on plant foliage. The following day, the plants are inoculated with a spore suspension of the fungus Erysiphe cichoracearum and incubated in a growth room for 7 days. Disease ratings are then made.

adult houseflies = adult houseflies spray test; format: in vivo, housefly; conditions: Musca domestica; 1% acetone solutions, 24 hours
Text: Twenty adult houseflies were confined in each of several cylindrical stainless steel cages (7.5 cm D×4 cm high) with wire screens of the ends. These were sprayed with 1% acetone solutions of the indicated compounds.

Erysiphe cichoracearum [5] = experiment: cucumber powdery mildew preventive test; format: in vivo; conditions: Golovinomyces cichoracearum, 168 h, 7 days
Description: Compounds of this invention are dissolved in acetone in an amount equal to 6% of the final volume and then suspended at a concentration of 20 ppm in purified water containing 25 ppm of the surfactant Alkanol® XC (sodium alkyl naphthalene sulfonate). This suspension is sprayed to the point of run-off on cucumber seedlings. The following day, the plants are inoculated with a spore suspension of the fungus Erysiphe cichoracearum and incubated in a growth room for 7 days. Disease ratings are then made. […] Phytotoxicity in the form of foliar burn or growth reduction was observed on some of the plants in association with disease control.

[6] = tested on: adult cotton boll weevils (Anthonomus grandis); experiment: adult cotton boll weevils spray test; format: in vivo; conditions: 1% acetone solution, 24 hours
Description: Five adult cotton boll weevils (Anthonomus grandis) were confined in a 4-oz. wide mouth jar. These were sprayed with a 1% acetone solution of the indicated compounds. Percent mortality after 24 hours is set forth below.

Pythium = Pythium infested soil test, cotton; format: in vivo; conditions: 1.5 kg/ha, 8 days
Text: (§3) Pythium infested soil was placed in a 900 cc cup. Compounds of this invention were mixed at a rate of 1.5 kg/ha in a section 2" wide×2" deep×4" long to simulate an in-the-row application. Five cotton seeds were planted in the treated soil. After 8 days, the cotton plants were removed and rated for disease control.

[7] = tested on: Puccinia graminis var. tritici; experiment: whole plant or invertebrate; format: in vivo; conditions: 192 h, read-out: % control wheat rust in residual wash-off test
Venturia inaequalis [8] = experiment: apple scab photostability test; format: in vivo; conditions: xenon arc 3500 foot candles 16 hours, 10-12 days
Description: as §2, with “on apple” for “in cucumber”, “Venturia inaequalis” for “Erysiphe cichoracearum”, “10-12” for “7”, “made. […] Phytotoxicity in the form of foliar burn was observed on some of the plants in association with disease control.” for “made.”

[9] = tested on: Eggs of the beet armyworm (Spodoptera exigua); experiment: beet armyworm egg (ovicidal) test, % eggs failing to hatch; format: in vivo; conditions: 72 h, three days, read-out: % Control (% eggs failing to hatch); for mortality at 1 %: 1% in acetone; for mortality at 200 ppm: 200 ppm in acetone
Description: Eggs of the beet armyworm (Spodoptera exigua), laid on cellophane discs each containing 50-75 eggs, were placed in petri dishes and lightly sprayed with 1% concentrations of the indicated compounds in acetone solution. Three days later, percent control (% eggs failing to hatch) was determined.
Eggs of the beet armyworm (Spodoptera exigua), laid on cellophane discs each containing 50-75 eggs, were placed in petri dishes and lightly sprayed with 200 ppm concentration of the indicated compounds in acetone solution. Three days later, percent control (% eggs failing to hatch) was determined.

Phytophthora infestans [10] = experiment: whole plant or invertebrate; format: in vivo; conditions: in Solanum lycopersicum, 96 h, read-out: % control tomato late blight in a residual wash-off test
Rhizoctonia solani = Rhizoctonia solani infested soil test, cotton; format: in vivo; conditions: 192 h, 1.5 kg/ha, 8 days
Text: as §3, with “Rhizoctonia solani-infested” for “Pythium infested”

Erysiphe cichoracearum [11] = experiment: cucumber powdery mildew residual wash-off test; format: in vivo; conditions: Golovinomyces cichoracearum, 168 h, 1/2 inch simulated rainfall, 7 days
Description: Compounds of this invention are dissolved in acetone in an amount equal to 6% of the final volume and then suspended at a concentration of 20 ppm in purified water containing 25 ppm of the surfactant Alkanol® XC (sodium alkyl naphthalene sulfonate). This suspension is sprayed to the point of run-off on cucumber seedlings. The following day, 1/2 inch of simulated rainfall is applied to the foliage of the plants. When the foliage is dry, the plants are inoculated with a spore suspension on the fungus Erysiphe cichoracearum and incubated in a growth room for 7 days. Disease ratings are then made.

Phytophthora infestans [12] = format: in vivo; conditions: 20 ppm, 4 days
Phytophthora infestans [13] = experiment: whole plant or invertebrate; format: in vivo; conditions: in Solanum lycopersicum, 96 h, read-out: % control tomato late blight in a photostability test
Venturia inaequalis [14] = experiment: apple scab preventive test; format: in vivo; conditions: 10-12 days
Description: as §1, with “following day, the plants” for “following day, 1/2 inch of simulated rainfall is applied to the foliage of the plants. When the foliage is dry, the plants”, “observed on some of the plants” for “observed on the plants”

Row | Structure (SMILES) | pest or weed control at 20 ppm (Erisyphe cichoracearum) [%] | pest or weed control at 20 ppm [1] [%] | pest or weed control at 20 ppm [2] [%] | pest or weed control at 20 ppm (Venturia inaequalis [3]) [%] | pest or weed control at 20 ppm (Erysiphe cichoracearum [4]) [%] | mortality at 1 % (adult houseflies) [%] | pest or weed control at 20 ppm (Erysiphe cichoracearum [5]) [%] | mortality at 1 % [6] [%] | % control Pythium (Pythium) [%] | pest or weed control at 20 ppm [7] [%] | pest or weed control at 20 ppm (Venturia inaequalis [8]) [%] | mortality at 1 % [9] [%] | pest or weed control at 20 ppm (Phytophthora infestans [10]) [%] | pest or weed control at 1500 g/ha (Rhizoctonia solani) [%] | pest or weed control at 20 ppm (Erysiphe cichoracearum [11]) [%] | % control tomato late blight in a preventive test (Phytophthora infestans [12]) [%] | pest or weed control at 20 ppm (Phytophthora infestans [13]) [%] | pest or weed control at 20 ppm (Venturia inaequalis [14]) [%] | mortality at 200 ppm [9] [%]
1 | O=C1CCCN1SN(c1cc(C(F)(F)F)ccc1Cl)c1c([N+](=O)[O-])cc([N+](=O)[O-])cc1C(F)(F)F | 100 | 100 | 100 | 75 | 97 | 100 | 100 | 100 | 50 | 100 | 50 | 100 | 50 | 90 | 30 | – | – | – | –
2 | COC(=O)CN(SN(c1cc(C(F)(F)F)ccc1Cl)c1c([N+](=O)[O-])cc([N+](=O)[O-])cc1C(F)(F)F)S(=O)(=O)c1ccc(C)cc1 | 0 | 30 | 20 | 0 | 0 | – | 0 | – | 50 | 25 | 0 | – | 0 | 50 | 0 | 0 | 0 | 0 | –
3 | CCCCN(SN(c1cc(C(F)(F)F)ccc1Cl)c1c([N+](=O)[O-])cc([N+](=O)[O-])cc1C(F)(F)F)S(=O)(=O)N(C)C | 99 | 100 | 80 | 100 | 80 | 100 | 100 | 100 | 0 | 90 | 0 | 100 | 93 | 0 | 98 | – | 90 | 100 | –
4 | CN(SN(c1cc(C(F)(F)F)ccc1Cl)c1c([N+](=O)[O-])cc([N+](=O)[O-])cc1C(F)(F)F)S(=O)(=O)c1ccc2ccccc2c1 | 50 | 100 | 100 | 100 | 75 | 100 | 100 | 100 | 0 | 100 | 0 | 100 | 100 | 0 | 85 | – | 100 | 50 | –
5 | Cc1ccc(S(=O)(=O)N(C)SN(c2c(F)cc(F)cc2F)c2c([N+](=O)[O-])cc([N+](=O)[O-])cc2C(F)(F)F)cc1 | 99 | 100 | 70 | 100 | 100 | – | 100 | – | 100 | 97 | 80 | – | 100 | 70 | 100 | 100 | 100 | 100 | –
6 | CN(SN(c1cc(C(F)(F)F)ccc1Cl)c1c([N+](=O)[O-])cc([N+](=O)[O-])cc1C(F)(F)F)S(=O)(=O)c1ccc(Cl)cc1 [4-chloro-N-[N-(2-chloro-5-trifluoromethylphenyl)-N-(2,4-dinitro-6-trifluoromethylphenyl)aminothio]-N-methylbenzenesulfonamide] | – | – | – | – | – | – | – | – | – | – | – | – | – | – | – | – | – | – | 100
7 | COCCN(SN(c1cc(C(F)(F)F)ccc1Cl)c1c([N+](=O)[O-])cc([N+](=O)[O-])cc1C(F)(F)F)S(=O)(=O)c1ccc(C)cc1 [N-[N-[2-chloro-5-(trifluoromethyl)phenyl]-N-[2,4-dinitro-6-trifluoromethylphenyl]aminothio]-N-(2-methoxyethyl)-4-methylbenzenesulfonamide] | – | – | – | – | – | – | – | – | – | – | – | – | – | – | – | – | – | – | 100
